# Source: patent US8663669B2, “Pesticide treatment of soils or substrates with sulphur compounds” (Arkema France, priority 2002, dated 2014)
# Tests used:
# [1] = system: termite (Reticulitermes santonensis); experiment: Insecticidal in vitro fumigation test on termites; type: in vivo; details: 24 hours of fumigation, mortality counted at the end of 48 hours; 25° C.
# Method: Dead wood infested with termites was collected from the soil on ground occupied by a colony. This dead wood serves as breeding medium. The breeding is maintained at a constant 25° C. and a day/night 12:12 alternation.
# The insects are removed in an amount of 2 soldiers per 28 workers.
# The tests are carried out in hermetically closed glass jars having a volume of 3 L and containing the insects.
# The product to be tested is introduced through a hole 2 mm in diameter with the aid of a micropipette and deposited on a filter paper (2×5 cm: Whatman No. 1) suspended at the centre of the jar where it migrates by capillarity and vaporizes rapidly. The hole is hermetically closed again as quickly as possible.
# The jars are placed for 24 hours in an incubator under the same breeding conditions.
# At the end of 24 hours, after a few instants of aeration, a first count is made and then the insects are placed again under breeding conditions for another 24 hours. The counting of the mortality is therefore carried out at the end of 48 hours. […] Each test is carried out on a population of 30 to 50 insects and is accompanied by a control without treatment. Several repeats are carried out with doses close to the LC50.
# [2] = system: larvae of Meloidogyne arenaria; experiment: Nematicidal in vitro test on second-stage juvenile larvae; type: in vivo; details: for Immobility rate after 48 h: 24 h in solution then 24 h in pure water
# Method: The second-stage juvenile larvae (the free and infesting stage) are immersed for 24 hours in the test solution and then the number of larvae paralysed are counted before transferring them into pure water for another 24 hours. At the end of the 48 hours which have thus elapsed, the larvae paralysed are again counted and the larvae truly dead are counted the next day.
# (§1) The breeding of the nematodes was carried out on tomato plants. The tests were carried out with, aqueous solutions of DMDS at 0.0001%, 0.1%, 1% and 5% by mass, of DPDS at 1%, 5% and 10% by mass, and of allicin at 0.0003%, 0.0015% and 0.003% by mass, compared with a control consisting of pure water, and repeated five times. The ovicidal activity was also evaluated according to the same modalities, by counting the number of hatchings after 5 to 20 days following exposure to the products.
# [3] = system: eggs of nematodes (Meloidogyne arenaria); experiment: Ovicidal activity on the eggs of nematodes (number of hatchings); type: in vivo
# Method: as §1
# [4] = system: termite (Reticulitermes santonensis); details: value given for comparison, not among the 3 products tested; cited from earlier work
structure (smiles),measurement,setting,value
"C=CCSSCC=C [DADS, diallyldisulphide]",LC50 (Probits method),[1],0.011 g × 24 h/m^3
"CCCSSCCC [DPDS, dipropyl disulphide]",Concentration for total efficacy (100% mortality),"[2]; by mass, aqueous solution",greater than or equal to 1%
same,Mortality rate after 72 h,[2]; concentration by mass 1 %,100%
same,Immobility rate after 48 h,[2]; concentration by mass 1 %,100%
same,Immobility rate after 24 h,"[2]; concentration by mass 1 %, aqueous solution",89%
same,Mortality rate after 72 h,[2]; concentration by mass 5 %,100%
same,Immobility rate after 48 h,[2]; concentration by mass 5 %,100%
same,Immobility rate after 24 h,"[2]; concentration by mass 5 %, aqueous solution",93%
same,Mortality rate after 72 h,[2]; concentration by mass 10 %,100%
same,Immobility rate after 48 h,[2]; concentration by mass 10 %,100%
same,Immobility rate after 24 h,"[2]; concentration by mass 10 %, aqueous solution",95%
same,Nematostatic and nematicidal activity,[2]; concentration of greater than or equal to 1%,high nematostatic and nematicidal activity
same,Ovicidal activity,[3]; 1-10 % by mass,very high ovicidal activity
same,Number of hatchings (cumulative),"[3]; concentration by mass 1 %, D5, control 550",117
same,Number of hatchings (cumulative),"[3]; concentration by mass 1 %, D8, control 810",183
same,Number of hatchings (cumulative),"[3]; concentration by mass 1 %, D12, control 990",200
same,Number of hatchings (cumulative),"[3]; concentration by mass 1 %, D15, control 1 030",200
same,Number of hatchings (cumulative),"[3]; concentration by mass 1 %, D19, control 1 030",200
same,Number of hatchings (cumulative),"[3]; concentration by mass 5 %, D5, control 550",67
same,Number of hatchings (cumulative),"[3]; concentration by mass 5 %, D8, control 810",67
same,Number of hatchings (cumulative),"[3]; concentration by mass 5 %, D12, control 990",67
same,Number of hatchings (cumulative),"[3]; concentration by mass 5 %, D15, control 1 030",67
same,Number of hatchings (cumulative),"[3]; concentration by mass 5 %, D19, control 1 030",67
same,Number of hatchings (cumulative),"[3]; concentration by mass 10 %, D5, control 550",33
same,Number of hatchings (cumulative),"[3]; concentration by mass 10 %, D8, control 810",33
same,Number of hatchings (cumulative),"[3]; concentration by mass 10 %, D12, control 990",33
same,Number of hatchings (cumulative),"[3]; concentration by mass 10 %, D15, control 1 030",33
same,Number of hatchings (cumulative),"[3]; concentration by mass 10 %, D19, control 1 030",33
same,Reduction in the number of hatchings,[3]; on the last day of observation,approximately 97%
"C=CCS[S+]([O-])CC=C (centres unmarked) [allicin, diallyl thiosulphinate]",Nematostatic and nematicidal activity,[2]; at much lower concentrations (0.0003-0.003% by mass),high nematostatic and nematicidal activity
same,Mortality rate after 72 h,[2]; concentration by mass 0.0003 %,12%
same,Immobility rate after 48 h,[2]; concentration by mass 0.0003 %,49%
same,Immobility rate after 24 h,"[2]; concentration by mass 0.0003 %, aqueous solution",7%
same,Mortality rate after 72 h,[2]; concentration by mass 0.0015 %,45%
same,Immobility rate after 48 h,[2]; concentration by mass 0.0015 %,85%
same,Immobility rate after 24 h,"[2]; concentration by mass 0.0015 %, aqueous solution",19%
same,Mortality rate after 72 h,[2]; concentration by mass 0.003 %,63%
same,Immobility rate after 48 h,[2]; concentration by mass 0.003 %,65%
same,Immobility rate after 24 h,"[2]; concentration by mass 0.003 %, aqueous solution",49%
same,LC50 (Probits method),[1],0.010 g × 24 h/m^3
CBr [methyl bromide],LC50 of the comparison fumigant,[4],0.1 g×24 h/m^3
